Values of other authors, collected in US9060937B2, “Pharmaceutical compositions” (priority 2006, dated 2015).

Details: in water

solubility: < 0.1 µg/mL
SMILES: CCCCC1=NC2(CCCC2)C(=O)N1Cc1ccc(-c2ccccc2-c2nnn[nH]2)cc1 [irbesartan, Irbesartan]
